ChEMBL document CHEMBL1155737, “Antillatoxin B, a neurotoxic lipopeptide from the marine cyanobacterium Lyngbya majuscula” (J Nat Prod, 2001)

Legend:
[1] = Activation of voltage-sensitive sodium channel in mouse neuro2a cells; type: cell-based; conditions: N2a
[2] = Ichthyotoxicity in Carassius auratus; type: organism-based; conditions: in vivo

| Structure (SMILES) | EC50 [1] | LC50 [2] |
| --- | --- | --- |
| C=C1CC(=O)N[C@@H](C)C(=O)N(C)[C@@H](CCc2ccccc2)C(=O)NCC(=O)O[C@@H](/C(C)=C/C(C)=C/C(C)(C)C)[C@@H]1C [ANTILLATOXIN B] | 1770 nM | 1000 nM |
| C=C1CC(=O)N[C@@H](C)C(=O)N(C)[C@@H](C(C)C)C(=O)NCC(=O)O[C@@H](/C(C)=C/C(C)=C/C(C)(C)C)[C@@H]1C [ANTILLATOXIN] | 180 nM | – |
